How the values were obtained:
[1] = system: responding tumors (HMLER-HR) opposite instigating LBC; assay: Aspirin treatment in LBC-mediated systemic instigation: responding tumors; type: in vivo, mice; conditions: aspirin 100 mg/kg i.p. once per week
Procedure: (§1) FIG. 35A. Experimental scheme to test effects of aspirin on LBC-mediated systemic instigation. All mice were injected with responders and LBC instigating tumors and treated with either 100 mg/kg aspirin or vehicle control; n=10 (5 mice per cohort for 2 independent experiments).
All experiments were performed in accordance with regulations of the Children's Hospital Boston Institutional Animal Care and Use Committee (protocol 09-12-1566). Unless otherwise indicated, tumor cells were suspended in 20% […] (BD Biosciences) and injected subcutaneously into nonirradiated mice. Tumors were measured on the flanks of live mice using calipers; volume was calculated as 0.5*length*(width^2).
(§2) 450 mg Aspirin (Sigma, A2093-100G) was dissolved in 11 ml DMSO to make a 41 mg/ml concentrated stock solution. 30 min before injection, 1.6 ml of stock solution was diluted in 11.6 ml of PBS to make a 5 mg/ml injection solution.
(§3) Vehicle control was made with 1.6 ml DMSO diluted in 11.6 ml PBS. Mice were injected i.p. with aspirin at 100 mg/kg, once per week. A similar volume:weight ratio of vehicle was administered to control animals.
In order to explore therapeutic potential and identify whether platelets were necessary for delivering the pro-tumorigenic instigating stimulus in the LBC macroenvironment, we treated mice with aspirin, which inhibits platelet activity (28). Mice were injected with LBC instigators that were permitted to grow for 4 weeks prior to initiation of weekly treatments of either aspirin or vehicle control; responders were then injected into these mice two days following the first aspirin treatment (FIG. 35A). While responding tumors formed in 90% of the mice treated with vehicle control, only 20% of the mice treated with aspirin developed responding tumors (FIG. 35B).

[2] = system: instigating LBC tumor / host platelets and bone marrow; assay: Aspirin treatment in LBC-mediated systemic instigation: instigating LBC tumor, platelet counts, bone marrow VEGFR2+ cells; type: in vivo, mice; conditions: aspirin 100 mg/kg i.p. once per week vs vehicle
Procedure: as §1
FIG. 35C. Numbers of VEGFR2+ cells in the bone marrow of experimental mice relative to those of cancer-free mice.
as §2, §3
In order to explore therapeutic potential and identify whether platelets were necessary for delivering the pro-tumorigenic instigating stimulus in the LBC macroenvironment, we treated mice with aspirin, which inhibits platelet activity (28). Mice were injected with LBC instigators that were permitted to grow for 4 weeks prior to initiation of weekly treatments of either aspirin or vehicle control; responders were then injected into these mice two days following the first aspirin treatment (FIG. 35A). […]

[3] = system: GFP+ responder cells; assay: Co-culture of GFP+ responder cells with BMCs from aspirin or vehicle treated mice, CD24 by flow cytometry; type: cell-based, human; conditions: BMCs from aspirin treated LBC-bearing mice; same with vehicle
Procedure: FIG. 35D. Flow cytometric analysis of CD24 expression on GFP+ responder cells co-cultured with indicated BMCs.
BMCs were harvested and tested for functional activity as previously described (McAllister et al., 2008). In vitro instigation assays were conducted by co-culturing 1×10^4 GFP-positive responder tumor cells with 1×10^6 BMCs harvested from mice bearing […], TNBC or LBC Instigators. Co-cultured cells were maintained for 4 days in BMDC medium (DMEM, 5% FBS, 5% horse serum, 10^−6 M hydrocortisone), adding fresh medium on day 2.
In order to understand whether BMCs from LBC tumor bearing mice directly mediated tumor cell surface enrichment of CD24, adherent GFP-positive (GFP+) responding tumor cells were cultured with BMCs prepared from various cohorts of mice and analyzed tumor cell expression of CD24 after 4 days by flow cytometry.

[4] = patients treated with erlotinib (Numico et al., 2011); cited from earlier work
[5] = system: HMLER-HR responder cells; assay: HMLER-HR responder cells in depleted medium (D.M.) plus EGF and/or insulin, 4 days: flow cytometry and qPCR; type: cell-based, human; conditions: for CD44 expression / CD44/CD24 expression patterns (flow cytometry) / Oct4 expression (qPCR) / Zeb1 expression (qPCR) / c-Myc expression (qPCR): added to cells kept in D.M. for 4 days, relative to C.M.
Excerpt: FIG. 23D. Flow cytometric density plots representing CD44/CD24 profiles of responding tumor cells after 4 days in depleted medium, D.M. (medium devoid of EGF and insulin), or D.M.+indicated supplements. Graph represents average responding tumor cell CD441CD24 profiles under indicated conditions relative to that of C.M (samples run in triplicate).
FIG. 23E. Expression levels of indicated malignancy profile genes in responder tumor cells after 4 days in indicated culture conditions relative to those maintained in C.M. Data represent average of three independent experiments, where each sample was run in triplicate.
FIG. 26E. Expression levels of c-myc in HMLER-HR responding tumor cells after 4 days in response to indicated doses of EGF. Data are represented relative to cells that had been maintained in depleted medium (D.M.; medium devoid of EGF and insulin). Data are expressed as mean±SEM; samples tested in triplicate.
HMLER-HR cells were maintained in DMEM-F12 (1:1) medium, supplemented with 5% calf serum, 10 ng/ml human recombinant EGF (Sigma E9644), 10 μg/ml insulin (Sigma 19278), 1 μg/ml hydrocortisone (Sigma 110888) and 1% penicillin-streptomycin. BPLER cells were maintained in WIT Medium (STEMGENT), and MCF7-Ras cells in DMEM media (Thermo Scientific) supplemented with 10% heat inactivated FBS (GIBCO), and 1% penicillin-streptomycin. BT549 cells were maintained in RPMI medium supplemented with 10% FBS.
RNA was extracted from cells or snap-frozen tissues using Trizol reagent following manufacturer's instructions (INVITROGEN). RNA was retrotranscribed with ProtoScript AMV First Strand cDNA Synthesis Kit (New England BioLabs). PCR amplification was performed on a ABI Prism 7900 sequence detector using SYBR-Green (Applied Biosystems). Analysis was done using delta-delta Ct method, normalizing first to GAPDH.
Whether EGFR and IGF1R signaling were necessary and/or sufficient for modulating responding tumor malignancy remained to be investigated. To do so, the effects of either depleting EGF and/or insulin from HMLER-HR responder cells that had been cultured in complete medium (C.M.) or adding EGF and/or insulin to cells that had been cultured in depleted medium (D.M., medium depleted of both EGF and insulin) were examined. For these studies, cells were treated under various conditions for 4 days, then assessed differentiation status by flow cytometry, expression of malignancy factors (e.g. Oct-4, Zeb1, c-myc) by qPCR, and tumor-forming capacity by soft agar colony formation.

Molecule | CD44 expression / CD44/CD24 expression patterns (flow cytometry) [5] | Oct4 expression (qPCR) [5] | Zeb1 expression (qPCR) [5] | c-Myc expression (qPCR) [5] | other results
CC(=O)Oc1ccccc1C(=O)O [aspirin, Aspirin] | – | – | – | – | incorporation of VEGFR2-positive cells into responding tumor sites ([1]; LBC instigating environment): completely inhibited; p-STAT3 in responding tumor site tissues ([1]; LBC instigating environment): negative; mice that developed responding tumors (incidence) ([1]; LBC instigators, vehicle control 90%): 20%; instigating LBC tumor growth [2]: did not significantly affect; increase in tumor cell CD24 expression above control BMCs from tumor-free mice [3]: ~90%
C#Cc1cccc(Nc2ncnc3cc(OCCOC)c(OCCOC)cc23)c1 [erlotinib] | – | – | – | – | adverse effect reported for patients [4]: skin rash
EGF: human recombinant EGF (Sigma E9644) | sufficient to restore | unaffected | restored | restored | c-myc upregulation in response to doses of EGF ([5]; HMLER-HR, 4 days, relative to D.M.): dose-dependent
insulin: insulin (Sigma 19278), medium supplement | not sufficient to restore | restored | remained significantly lower than the controls | remained significantly lower than the controls | –

Source: US10295530B2, “Functional assay for cancer recurrence and malignant potential” (THE BRIGHAM AND WOMEN'S HOSPITAL, INC., priority 2012, dated 2019)
